Data as given in US9643985B2, “PCL compounds, compositions, and methods of use thereof” (The Board Of Trustees Of The University Of Illinois, priority 2013, dated 2017).
Like-named read-outs stand apart in the source and are kept apart here.

What was measured:
[1] = Yield of D-Luciferin (A385) after treatment with peroxynitrite (bolus or SIN-1 derived); conditions: for Maximum Yield Luciferin(%): 5 μM PCL-1 in TBS, pH 8.5, 37° C., 90 minutes, A385
Description: Where applicable, spectral contributions from oxidants were subtracted via a parallel blank experiment containing no PCL-1.
(§1) The environment inside most cellular compartments is “reducing”—a status heavily dependent on the multiple antioxidant systems that rapidly detoxify oxidants in cells such as thioredoxins and glutathione/glutathione reductase redox systems and catalase. A viable biosensor for an oxidant inside of cells and tissue should detect its target in the presence of these and other ubiquitous milieu components.
(§2) Data were normalized to bioluminescence obtained from an identical treatment of authentic D-Luciferin (5 μM). […] In all cases, spectral contributions from oxidants were subtracted via a parallel blank experiment containing no PCL-1.

[2] = Yield of D-Luciferin (A385) after treatment with H2O2
Description: as §1, §2

[3] = Total bioluminescence after minimal SIN-1 or H2O2 (FIG. 1); conditions: 60 minutes at 37° C.
Method: Recombinant luciferase was added to the reaction mixture and bioluminescence was detected at 612 nm for 60 minutes. D-Luciferin (5 μM) was used as a determinant of maximum yield.

[4] = Rate constant of reaction with H2O2; conditions: 100 mM sodium phosphate, pH 7.4, 37° C. (Table 3)
[5] = Rate constant of reaction with peroxynitrite, stopped-flow spectroscopy; conditions: 100 mM sodium phosphate, pH 7.4, 37° C. (Table 3)
C57BL/6 mice irradiated = experiment: Irradiated mouse model, fecal PCL-1/luciferin marker by LC-MS/MS; type: in vivo
Method: (§3) C57BL/6 mice were irradiated at a high lethal dose of 13Gy or at a LD70/30 of 8.1Gy in independent experiments using a Cs^137 source. PCL-1 was administered via oral gavage at 40 or 60 μM/animal, 0.2 mL volume per animal. Fecal samples were collected […] from the irradiated and non-irradiated mice at different time points (pre-dose, 4, 6 and 8 hr post-dose) prior to irradiation and also on days 1, 5 and 7 post-irradiation from all animals. PCL-1 and cleaved PCL-1 (luciferin) levels were measured in the feces using LC-MS/MS method.

[6] = Reactivity of PCL-1 towards other oxidants
[7] = Maximum fecal concentrations after oral administration of PCL-1; type: in vivo, mice; conditions: up to a 6.25 fold increase in dose
Method: as §3
Additionally with up to a 6.25 fold increase in dose a directly proportional fold increase in marker detected was not observed.

[8] = test system: mouse bone marrow-derived macrophages (BMDM); experiment: Detection of iNOS-derived peroxynitrite in LPS-stimulated macrophages; type: cell-based
Method: Bone marrow derived macrophages were prepared using 10% L929 cell (ATCC) supernatant in RPMI medium (Cellgro) made complete with 10% FBS, penicillin, streptomycin, and glutamine (Gibco). Cells were cultured 4-6 days prior to plating for experiments in opaque, white microtiter plates (Falcon) for analysis on a Wallac Victor2 luminometer (PerkinElmer).
In order to validate the utility of PCL-1 to detect peroxynitrite in cells, mouse bone marrow-derived macrophages (BMDM) were stimulated with 50 ng/mL bacterial LPS (lipopolysaccharide) for 22 hours, 5 μM PCL-1 was added for an additional 2 hours, then D-Luciferin generated was quantified over the course of 2 hours by addition of […] recombinant luciferase, according to Example 1.

[9] = Safety of PCL-1 in mice, oral gavage; type: in vivo; conditions: 40 to 250 μM per animal via oral gavage
[10] = rate constant of the competing milieu component with peroxynitrite; cited from earlier work

O=C(O)[C@H]1CSC(c2nc3ccc(OCc4ccc(B(O)O)c(F)c4)cc3s2)=N1 [PCL-F, (S)-2-(6-(4-borono-3-fluorobenzyloxy)benzo[d]thiazol-2-yl)-4,5-dihydrothiazole-4-carboxylic acid]
glutathione concentration until which reactivity with SIN-1 was retained ([1]; 5 μM, 100 μM SIN-1, 90 minutes): 1 to 5 mM
reactivity with H2O2 ([2]; 5 μM in TBS, pH 8.5, 37° C., 100 μM H2O2, 90 minutes, compared to PCL-1): Little reactivity
resistance to hydrolysis ([3]; 5 μM, bioluminescence at 612 nm): resistant to hydrolysis in comparison to PCL-1
selectivity in detecting peroxynitrite vs. hydrogen peroxide ([3]; SIN-1 (2.5 μM) or H2O2 (25 μM)): more selective than PCL-1
kH2O2 [4]: 0.11 (±0.02) M^−1s^−1
kONOO− [5]: 4.5 (±0.2) × 10^5 M^−1s^−1

O=C(O)[C@H]1CSC(c2nc3ccc(OCc4ccc(B(O)O)cc4)cc3s2)=N1 [PCL-1]
D-luciferin obtained ([1]; SIN-1, in the presence of BSA): 45.49%
effect of GSH, albumin or catalase on peroxynitrite reactivity ([1]; at the tested concentrations): ≤ 10%
Maximum Yield Luciferin(%) ([1]; peroxynitrite bolus (10 μM)): 95%
Maximum Yield Luciferin(%) ([1]; peroxynitrite from SIN-1 (100 μM)): 96%
yield of D-Luciferin ([1]; peroxynitrite, in the presence of 66.5 mg/mL BSA (1.0 mM)): 87.5±7.48%
increase in PCL-1 and % cleaved PCL-1 levels in the feces (C57BL/6 mice irradiated; 8.1Gy irradiation, until day 7): two-fold or more increase
increase in the level of the marker in fecal samples vs control (C57BL/6 mice irradiated; 13Gy, days 5 to 7, PCL-1 oral gavage): about 3 fold
Maximum Yield Luciferin(%) ([2]; H2O2 (100 μM) added to 5 μM PCL-1 in TBS, pH 8.5, 37° C., 90 minutes, A385 normalized to authentic D-luciferin): 97%
yield luciferin ([2]; H2O2 as oxidant, with added BSA): 7.38±1.39%
H2O2-mediated conversion to luciferin ([2]; in the presence of GSH, albumin or catalase): negligible
conversion to luciferin by H2O2 ([2]; in vitro, in the absence of GSH, albumin, or catalase): quantitatively converted to luciferin
sensitivity towards NO, superoxide radical anion, HOCl, and singlet oxygen [6]: insensitive
dose dependence of fecal detection [7]: not dose dependent
kH2O2 [4]: 1.2 (±0.3) M^−1s^−1
kONOO− [5]: 9.8 (±0.1) × 10^5 M^−1s^−1
D-Luciferin signal ([8]; BMDMs from iNOS^−/− animals, LPS): no signal above baseline
D-Luciferin production over the baseline value ([8]; wild-type macrophages, LPS 50 ng/mL, 5 μM PCL-1): nearly two-fold increase
signs of toxicity [9]: no signs of toxicity were observed

N[C@@H](CCC(=O)N[C@@H](CS)C(=O)NCC(=O)O)C(=O)O [glutathione]
kONOO− [10]: 1400 M⁻¹ s⁻¹

bovine serum albumin: milieu component competing for oxidants
kONOO− [10]: 8310 M⁻¹ s⁻¹
